According to ChEMBL document CHEMBL1828549, “Novel C-4'' modified azithromycin analogs with remarkably enhanced activity against erythromycin-resistant Streptococcus pneumoniae: the synthesis and antimicrobial evaluation” (2011):
Converted amounts (≈) assume the structure as drawn.

Assays:
Assay type in all cases: functional
[1] = test system: Streptococcus pneumoniae; experiment: Antibacterial activity against erythromycin-resistant Streptococcus pneumoniae AB11 expressing erm and mef gene by the broth microdilution method
[2] = test system: Staphylococcus aureus; experiment: Antibacterial activity against […] Staphylococcus aureus ATCC 29213 by the broth microdilution method
[3] = test system: Streptococcus pneumoniae; experiment: Antibacterial activity against erythromycin-susceptible Streptococcus pneumoniae ATCC 49619 by the broth microdilution method
[4] = test system: Streptococcus pneumoniae; experiment: Antibacterial activity against erythromycin-resistant Streptococcus pneumoniae A22072 expressing mef gene by the broth microdilution method
[5] = test system: Streptococcus pneumoniae; experiment: Antibacterial activity against erythromycin-resistant Streptococcus pneumoniae B1 expressing erm gene by the broth microdilution method
[6] = test system: Staphylococcus aureus; experiment: Antibacterial activity against erythromycin-susceptible Staphylococcus aureus ATCC 25923 by the broth microdilution method
[7] = test system: Staphylococcus aureus; experiment: Antibacterial activity against penicillin-resistant Staphylococcus aureus by the broth microdilution method

CC[C@H]1OC(=O)[C@H](C)[C@@H](O[C@H]2C[C@@](C)(OC)[C@@H](OC(=O)NNC(=O)c3ccc(OC)cc3)[C@H](C)O2)[C@H](C)[C@@H](O[C@@H]2O[C@H](C)C[C@H](N(C)C)[C@H]2O)[C@](C)(O)C[C@@H](C)CN(C)[C@H](C)[C@H]2OC(=O)O[C@@]21C
MIC [1]: 64 µg/mL (≈ 66.2 µM) | MIC [2]: 32 µg/mL (≈ 33.1 µM) | MIC [3]: 4 µg/mL (≈ 4.14 µM) | MIC [4]: 0.25 µg/mL (≈ 0.258 µM) | MIC [5]: 16 µg/mL (≈ 16.5 µM) | MIC [6]: 2 µg/mL (≈ 2.07 µM) | MIC [7]: 8 µg/mL (≈ 8.27 µM)

CC[C@H]1OC(=O)[C@H](C)[C@@H](O[C@H]2C[C@@](C)(OC)[C@@H](OC(=O)NNC(=O)c3ccccc3OC)[C@H](C)O2)[C@H](C)[C@@H](O[C@@H]2O[C@H](C)C[C@H](N(C)C)[C@H]2O)[C@](C)(O)C[C@@H](C)CN(C)[C@H](C)[C@H]2OC(=O)O[C@@]21C
MIC [1]: 32 µg/mL (≈ 33.1 µM) | MIC [2]: 16 µg/mL (≈ 16.5 µM) | MIC [3]: 1 µg/mL (≈ 1.03 µM) | MIC [4]: 0.5 µg/mL (≈ 0.517 µM) | MIC [5]: 8 µg/mL (≈ 8.27 µM) | MIC [6]: 4 µg/mL (≈ 4.14 µM) | MIC [7]: 16 µg/mL (≈ 16.5 µM)

CC[C@H]1OC(=O)[C@H](C)[C@@H](O[C@H]2C[C@@](C)(OC)[C@@H](OC(=O)NNC(=O)c3ccc(OC)c(OC)c3)[C@H](C)O2)[C@H](C)[C@@H](O[C@@H]2O[C@H](C)C[C@H](N(C)C)[C@H]2O)[C@](C)(O)C[C@@H](C)CN(C)[C@H](C)[C@H]2OC(=O)O[C@@]21C
MIC [1]: 64 µg/mL (≈ 64.2 µM) | MIC [2]: 4 µg/mL (≈ 4.01 µM) | MIC [3]: 1 µg/mL (≈ 1 µM) | MIC [4]: 0.25 µg/mL (≈ 0.251 µM) | MIC [5]: 32 µg/mL (≈ 32.1 µM) | MIC [6]: 4 µg/mL (≈ 4.01 µM) | MIC [7]: 1 µg/mL (≈ 1 µM)

CC[C@H]1OC(=O)[C@H](C)[C@@H](O[C@H]2C[C@@](C)(OC)[C@@H](OC(=O)NNC(=O)c3ccc(F)cc3)[C@H](C)O2)[C@H](C)[C@@H](O[C@@H]2O[C@H](C)C[C@H](N(C)C)[C@H]2O)[C@](C)(O)C[C@@H](C)CN(C)[C@H](C)[C@H]2OC(=O)O[C@@]21C
MIC [1]: 64 µg/mL (≈ 67 µM) | MIC [2]: 32 µg/mL (≈ 33.5 µM) | MIC [3]: 4 µg/mL (≈ 4.19 µM) | MIC [4]: 1 µg/mL (≈ 1.05 µM) | MIC [5]: 32 µg/mL (≈ 33.5 µM) | MIC [6]: 4 µg/mL (≈ 4.19 µM) | MIC [7]: 4 µg/mL (≈ 4.19 µM)

CC[C@H]1OC(=O)[C@H](C)[C@@H](O[C@H]2C[C@@](C)(OC)[C@@H](OC(=O)NNC(=O)c3ccc(Cl)cc3)[C@H](C)O2)[C@H](C)[C@@H](O[C@@H]2O[C@H](C)C[C@H](N(C)C)[C@H]2O)[C@](C)(O)C[C@@H](C)CN(C)[C@H](C)[C@H]2OC(=O)O[C@@]21C
MIC [1]: 64 µg/mL (≈ 65.9 µM) | MIC [2]: 4 µg/mL (≈ 4.12 µM) | MIC [3]: 1 µg/mL (≈ 1.03 µM) | MIC [4]: 0.25 µg/mL (≈ 0.257 µM) | MIC [5]: 32 µg/mL (≈ 32.9 µM) | MIC [6]: 2 µg/mL (≈ 2.06 µM) | MIC [7]: 16 µg/mL (≈ 16.5 µM)

CC[C@H]1OC(=O)[C@H](C)[C@@H](O[C@H]2C[C@@](C)(OC)[C@@H](OC(=O)NNC(=O)c3ccc(Br)cc3)[C@H](C)O2)[C@H](C)[C@@H](O[C@@H]2O[C@H](C)C[C@H](N(C)C)[C@H]2O)[C@](C)(O)C[C@@H](C)CN(C)[C@H](C)[C@H]2OC(=O)O[C@@]21C
MIC [1]: 16 µg/mL (≈ 15.7 µM) | MIC [2]: 1 µg/mL (≈ 0.984 µM) | MIC [3]: 1 µg/mL (≈ 0.984 µM) | MIC [4]: 0.12 µg/mL (≈ 0.118 µM) | MIC [5]: 4 µg/mL (≈ 3.94 µM) | MIC [6]: 2 µg/mL (≈ 1.97 µM) | MIC [7]: 4 µg/mL (≈ 3.94 µM)

CC[C@H]1OC(=O)[C@H](C)[C@@H](O[C@H]2C[C@@](C)(OC)[C@@H](OC(=O)NNC(=O)c3ccc(Cl)cc3Cl)[C@H](C)O2)[C@H](C)[C@@H](O[C@@H]2O[C@H](C)C[C@H](N(C)C)[C@H]2O)[C@](C)(O)C[C@@H](C)CN(C)[C@H](C)[C@H]2OC(=O)O[C@@]21C
MIC [1]: 16 µg/mL (≈ 15.9 µM) | MIC [2]: 16 µg/mL (≈ 15.9 µM) | MIC [3]: 1 µg/mL (≈ 0.994 µM) | MIC [4]: 0.25 µg/mL (≈ 0.249 µM) | MIC [5]: 4 µg/mL (≈ 3.98 µM) | MIC [6]: 4 µg/mL (≈ 3.98 µM) | MIC [7]: 16 µg/mL (≈ 15.9 µM)

CC[C@H]1OC(=O)[C@H](C)[C@@H](O[C@H]2C[C@@](C)(OC)[C@@H](OC(=O)NNC(=O)c3ccc([N+](=O)[O-])cc3)[C@H](C)O2)[C@H](C)[C@@H](O[C@@H]2O[C@H](C)C[C@H](N(C)C)[C@H]2O)[C@](C)(O)C[C@@H](C)CN(C)[C@H](C)[C@H]2OC(=O)O[C@@]21C
MIC [1]: 32 µg/mL (≈ 32.6 µM) | MIC [2]: 4 µg/mL (≈ 4.07 µM) | MIC [3]: 0.25 µg/mL (≈ 0.255 µM) | MIC [4]: 1 µg/mL (≈ 1.02 µM) | MIC [5]: 16 µg/mL (≈ 16.3 µM) | MIC [6]: 4 µg/mL (≈ 4.07 µM) | MIC [7]: 4 µg/mL (≈ 4.07 µM)

CC[C@H]1OC(=O)[C@H](C)[C@@H](O[C@H]2C[C@@](C)(OC)[C@@H](OC(=O)NNC(=O)c3cc([N+](=O)[O-])cc([N+](=O)[O-])c3)[C@H](C)O2)[C@H](C)[C@@H](O[C@@H]2O[C@H](C)C[C@H](N(C)C)[C@H]2O)[C@](C)(O)C[C@@H](C)CN(C)[C@H](C)[C@H]2OC(=O)O[C@@]21C
MIC [1]: 32 µg/mL (≈ 31.2 µM) | MIC [2]: 4 µg/mL (≈ 3.89 µM) | MIC [3]: 0.5 µg/mL (≈ 0.487 µM) | MIC [4]: 0.25 µg/mL (≈ 0.243 µM) | MIC [5]: 16 µg/mL (≈ 15.6 µM) | MIC [6]: 4 µg/mL (≈ 3.89 µM) | MIC [7]: 4 µg/mL (≈ 3.89 µM)

CC[C@H]1OC(=O)[C@H](C)[C@@H](O[C@H]2C[C@@](C)(OC)[C@@H](OC(=O)NCCNC(=O)c3ccc(OC)cc3)[C@H](C)O2)[C@H](C)[C@@H](O[C@@H]2O[C@H](C)C[C@H](N(C)C)[C@H]2O)[C@](C)(O)C[C@@H](C)CN(C)[C@H](C)[C@H]2OC(=O)O[C@@]21C
MIC [1]: 64 µg/mL (≈ 64.3 µM) | MIC [2]: 16 µg/mL (≈ 16.1 µM) | MIC [3]: 4 µg/mL (≈ 4.02 µM) | MIC [4]: 4 µg/mL (≈ 4.02 µM) | MIC [5]: 32 µg/mL (≈ 32.2 µM) | MIC [6]: 4 µg/mL (≈ 4.02 µM) | MIC [7]: 4 µg/mL (≈ 4.02 µM)

CC[C@H]1OC(=O)[C@H](C)[C@@H](O[C@H]2C[C@@](C)(OC)[C@@H](OC(=O)NCCNC(=O)c3ccccc3OC)[C@H](C)O2)[C@H](C)[C@@H](O[C@@H]2O[C@H](C)C[C@H](N(C)C)[C@H]2O)[C@](C)(O)C[C@@H](C)CN(C)[C@H](C)[C@H]2OC(=O)O[C@@]21C
MIC [1]: 64 µg/mL (≈ 64.3 µM) | MIC [2]: 8 µg/mL (≈ 8.04 µM) | MIC [3]: 0.5 µg/mL (≈ 0.502 µM) | MIC [4]: 8 µg/mL (≈ 8.04 µM) | MIC [5]: 32 µg/mL (≈ 32.2 µM) | MIC [6]: 4 µg/mL (≈ 4.02 µM) | MIC [7]: 64 µg/mL (≈ 64.3 µM)

CC[C@H]1OC(=O)[C@H](C)[C@@H](O[C@H]2C[C@@](C)(OC)[C@@H](OC(=O)NCCNC(=O)c3ccc(OC)c(OC)c3)[C@H](C)O2)[C@H](C)[C@@H](O[C@@H]2O[C@H](C)C[C@H](N(C)C)[C@H]2O)[C@](C)(O)C[C@@H](C)CN(C)[C@H](C)[C@H]2OC(=O)O[C@@]21C
MIC [1]: 64 µg/mL (≈ 62.4 µM) | MIC [2]: 32 µg/mL (≈ 31.2 µM) | MIC [3]: 2 µg/mL (≈ 1.95 µM) | MIC [4]: 4 µg/mL (≈ 3.9 µM) | MIC [5]: 32 µg/mL (≈ 31.2 µM) | MIC [6]: 4 µg/mL (≈ 3.9 µM) | MIC [7]: 8 µg/mL (≈ 7.8 µM)

CC[C@H]1OC(=O)[C@H](C)[C@@H](O[C@H]2C[C@@](C)(OC)[C@@H](OC(=O)NCCNC(=O)c3ccc(C)cc3)[C@H](C)O2)[C@H](C)[C@@H](O[C@@H]2O[C@H](C)C[C@H](N(C)C)[C@H]2O)[C@](C)(O)C[C@@H](C)CN(C)[C@H](C)[C@H]2OC(=O)O[C@@]21C
MIC [1]: 16 µg/mL (≈ 16.3 µM) | MIC [2]: 16 µg/mL (≈ 16.3 µM) | MIC [3]: 1 µg/mL (≈ 1.02 µM) | MIC [4]: 0.25 µg/mL (≈ 0.255 µM) | MIC [5]: 8 µg/mL (≈ 8.17 µM) | MIC [6]: 4 µg/mL (≈ 4.08 µM) | MIC [7]: 4 µg/mL (≈ 4.08 µM)

CC[C@H]1OC(=O)[C@H](C)[C@@H](O[C@H]2C[C@@](C)(OC)[C@@H](OC(=O)NCCNC(=O)c3ccc(F)cc3)[C@H](C)O2)[C@H](C)[C@@H](O[C@@H]2O[C@H](C)C[C@H](N(C)C)[C@H]2O)[C@](C)(O)C[C@@H](C)CN(C)[C@H](C)[C@H]2OC(=O)O[C@@]21C
MIC [1]: 32 µg/mL (≈ 32.5 µM) | MIC [2]: 16 µg/mL (≈ 16.3 µM) | MIC [3]: 1 µg/mL (≈ 1.02 µM) | MIC [4]: 1 µg/mL (≈ 1.02 µM) | MIC [5]: 4 µg/mL (≈ 4.07 µM) | MIC [6]: 16 µg/mL (≈ 16.3 µM) | MIC [7]: 2 µg/mL (≈ 2.03 µM)

CC[C@H]1OC(=O)[C@H](C)[C@@H](O[C@H]2C[C@@](C)(OC)[C@@H](OC(=O)NCCNC(=O)c3ccc(Cl)cc3)[C@H](C)O2)[C@H](C)[C@@H](O[C@@H]2O[C@H](C)C[C@H](N(C)C)[C@H]2O)[C@](C)(O)C[C@@H](C)CN(C)[C@H](C)[C@H]2OC(=O)O[C@@]21C
MIC [1]: 32 µg/mL (≈ 32 µM) | MIC [2]: 16 µg/mL (≈ 16 µM) | MIC [3]: 0.5 µg/mL (≈ 0.5 µM) | MIC [4]: 1 µg/mL (≈ 1 µM) | MIC [5]: 8 µg/mL (≈ 8 µM) | MIC [6]: 4 µg/mL (≈ 4 µM) | MIC [7]: 2 µg/mL (≈ 2 µM)

CC[C@H]1OC(=O)[C@H](C)[C@@H](O[C@H]2C[C@@](C)(OC)[C@@H](OC(=O)NCCNC(=O)c3ccc(Br)cc3)[C@H](C)O2)[C@H](C)[C@@H](O[C@@H]2O[C@H](C)C[C@H](N(C)C)[C@H]2O)[C@](C)(O)C[C@@H](C)CN(C)[C@H](C)[C@H]2OC(=O)O[C@@]21C
MIC [1]: 8 µg/mL (≈ 7.66 µM) | MIC [2]: 4 µg/mL (≈ 3.83 µM) | MIC [3]: 0.5 µg/mL (≈ 0.479 µM) | MIC [4]: 0.25 µg/mL (≈ 0.239 µM) | MIC [5]: 2 µg/mL (≈ 1.92 µM) | MIC [6]: 1 µg/mL (≈ 0.958 µM) | MIC [7]: 2 µg/mL (≈ 1.92 µM)
